Reference: paper PMC9832568, “Experimental and computational snapshots of C-C bond formation in a C-nucleoside synthase” (Open Biology, 2023)
Numbering of substitutions follows the chain as printed. Several values for one entry are separate records, joined by “and”; a condition that tells them apart may be missing. Equal entries are not always repeated. Blank lines part the entries; values can stand above or below the compound they belong to.

Legend:
WT ForT [1] = target: T1, WT ForT (Streptomyces kaniharaensis, UniProt A0A5S9CYM0); design: method as in PMID 31518483; details: ForT-catalysed coupling to PRPP, two products with a new C-C bond; cited from earlier work
WT ForT [2] = target: T1, WT ForT; experiment: Substrate scope of WT ForT, LC-MS assay; type: biochemical; details: MgPRPP
Experimental: We assayed a series of pyrazoles as ForT substrates in which the extracyclic amine was replaced by hydrogen (PDA), nitro- (NPDA), methyl- (MPDA) and iodo- (IPDA) groups (figure 5a; electronic supplementary material, table S1). […] On the other hand, 4-amino-1H-pyrazole-3-carboxylate (APCA) can be coupled to PRPP by ForT to give two products containing a new C-C bond, albeit in less than 5% overall yield (figure 5b). In order to assess the importance of pyrazole substitution, we incubated 3-amino-1H-pyrazole-4-carboxylate (iso-APCA) (electronic supplementary material, table S2) and MgPRPP in the presence of ForT. […] Thus, the product was one of two possible C-N nucleotides.

ForT/PRPP complex = target: T2, ForT/PRPP complex (Streptomyces kaniharaensis, UniProt A0A5S9CYM0); experiment: Binding of HPDA to the ForT/PRPP complex; details: Li, unpublished
T2 sequence (A0A5S9CYM0 1-341): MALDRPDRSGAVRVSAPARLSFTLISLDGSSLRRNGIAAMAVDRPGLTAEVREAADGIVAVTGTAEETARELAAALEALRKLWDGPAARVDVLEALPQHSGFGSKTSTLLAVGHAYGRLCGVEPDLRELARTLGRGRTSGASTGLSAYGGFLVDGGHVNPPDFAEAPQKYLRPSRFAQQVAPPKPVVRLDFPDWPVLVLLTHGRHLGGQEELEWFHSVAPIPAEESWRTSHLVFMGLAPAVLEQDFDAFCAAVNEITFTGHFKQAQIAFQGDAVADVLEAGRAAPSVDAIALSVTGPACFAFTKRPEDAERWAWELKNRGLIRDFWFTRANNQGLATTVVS

L24A ForT variant = target: T3, L24A ForT variant (Streptomyces kaniharaensis, UniProt A0A5S9CYM0, L24A); experiment: biochemical
T3 sequence (A0A5S9CYM0 1-341 L24A): T2 sequence (A0A5S9CYM0 1-341) with L24A

E211A ForT variant = target: T4, E211A ForT variant (Streptomyces kaniharaensis, UniProt A0A5S9CYM0, E211A); experiment: biochemical
T4 sequence (A0A5S9CYM0 1-341 E211A): T2 sequence (A0A5S9CYM0 1-341) with E211A

S21A ForT variant = target: T5, S21A ForT variant (Streptomyces kaniharaensis, UniProt A0A5S9CYM0, S21A); experiment: biochemical
T5 sequence (A0A5S9CYM0 1-341 S21A): T2 sequence (A0A5S9CYM0 1-341) with S21A

S174A ForT variant = target: T6, S174A ForT variant (Streptomyces kaniharaensis, UniProt A0A5S9CYM0, S174A); experiment: biochemical
T6 sequence (A0A5S9CYM0 1-341 S174A): T2 sequence (A0A5S9CYM0 1-341) with S174A

T138V ForT variant = target: T7, T138V ForT variant (Streptomyces kaniharaensis, UniProt A0A5S9CYM0, T138V); experiment: biochemical
T7 sequence (A0A5S9CYM0 1-341 T138V): T2 sequence (A0A5S9CYM0 1-341) with T138V

WT ForT [3] = target: T1, WT ForT; experiment: ITC binding of PRPP to free enzyme, absence of Mg2+; details: no Mg2+, room temperature
From the text: We therefore extended these studies to obtain the binding affinity of APDA to the ForT/PRPP binary complex at room temperature using isothermal calorimetry (ITC) measurements. […] The omission of the catalytically important metal ion thereby avoids any heat generated by catalytic turnover ‘contaminating’ heat released by ligand binding. As a result, these ITC studies report only on the affinity of PRPP and APDA for the free WT enzyme and its PRPP binary complex, respectively.

K263A ForT variant = target: T8, K263A ForT variant (Streptomyces kaniharaensis, UniProt A0A5S9CYM0, K263A); experiment: biochemical
T8 sequence (A0A5S9CYM0 1-341 K263A): T2 sequence (A0A5S9CYM0 1-341) with K263A

T138A ForT variant = target: T9, T138A ForT variant (Streptomyces kaniharaensis, UniProt A0A5S9CYM0, T138A); experiment: biochemical
T9 sequence (A0A5S9CYM0 1-341 T138A): T2 sequence (A0A5S9CYM0 1-341) with T138A

SMILES: Nc1cn[nH]c1C(=O)O [APCA, 4-amino-1H-pyrazole-3-carboxylate]
overall yield of coupled products (WT ForT [1]): less than 5%

SMILES: O=C(O)c1n[nH]c(C(=O)O)c1O [HPDA, 4-hydroxy-1H-pyrazole-3,5-dicarboxylic acid]
substrate for the ForT-catalysed coupling with PRPP (WT ForT [2]): is not a substrate
Kd (ForT/PRPP complex): 37000 nM

SMILES: O=C(O)c1n[nH]c(C(=O)O)c1I [IPDA]
substrate for the ForT-catalysed coupling with PRPP (WT ForT [2]): None of these pyrazole-dicarboxylates proved to be substrates

SMILES: Cc1c(C(=O)O)n[nH]c1C(=O)O [MPDA]
substrate for the ForT-catalysed coupling with PRPP (WT ForT [2]): None of these pyrazole-dicarboxylates proved to be substrates

SMILES: O=C(O)c1n[nH]c(C(=O)O)c1[N+](=O)[O-] [NPDA]
substrate for the ForT-catalysed coupling with PRPP (WT ForT [2]): None of these pyrazole-dicarboxylates proved to be substrates

SMILES: O=C(O)c1cc(C(=O)O)[nH]n1 [PDA]
substrate for the ForT-catalysed coupling with PRPP (WT ForT [2]): None of these pyrazole-dicarboxylates proved to be substrates

SMILES: O=P(O)(O)OC[C@H]1O[C@H](OP(=O)(O)OP(=O)(O)O)[C@H](O)[C@@H]1O [PRPP, 5′-phosphoribose-1′-pyrophosphate]
Kd (L24A ForT variant): 1500 ± 100 nM
Kd (E211A ForT variant): 950 ± 20 nM
Kd (S21A ForT variant): 350 ± 20 nM
Kd (S174A ForT variant): 6000 ± 300 nM
Kd (T138V ForT variant): 700 ± 400 nM
Kd (WT ForT [3]): 900 nM and 930 nM
Kd (K263A ForT variant): 20000 ± 8000 nM
Kd (T138A ForT variant): 6700 ± 500 nM

substrate for the ForT-catalysed coupling with PRPP (WT ForT [2]): a new product had been formed
SMILES: Nc1[nH]ncc1C(=O)O [iso-APCA, 3-amino-1H-pyrazole-4-carboxylate]
